From patent US8835481B2, “1-benzyl-3-hydroxymethylindazole derivatives and use thereof in the treatment of diseases based on the expression of MCP-1, CX3CR1 and P40” (Aziende Chimiche Riunite Angelini Francesco A.C.R.A.F. …, priority 2008, dated 2014)
Each block holds one molecule with its values, some of them ahead of it.

Columns and labels:
[1] = system: CX3CR1 expression by LPS-stimulated MonoMac6 cells; experiment: Analysis of the gene expression of CX3CR1 in a human monocyte line (real-time RT-PCR); format: cell-based; details: 1 h pre-incubation, LPS 100 ng/ml 20 h, read-out: % inhibition of CX3CR1 expression (mRNA); for inhibition at 300 µM: MONO-MAC-6, compound 300 μM (maximum soluble concentration); for inhibition at 150 µM: MONO-MAC-6, compound 150 μM (maximum soluble concentration)
Protocol: The capacity of the compounds to inhibit the expression of CX3CR1 by lipopolysaccharide (LPS)-stimulated MonoMac6 cells was evaluated. The cells were placed in 96-well plates at a concentration of 50 000 cells/well. […] The cells were then stimulated with LPS (100 ng/ml) for 20 hours.
(§1) The total RNA was extracted from the cell pellet using the RNeasy mini kit (Qiagen), reverse-transcribed with the TaqMan Reverse transcription reagents synthesis kit (Applied Biosystems) and the cDNA obtained was used for the real-time PCR reaction. The amplification was obtained in 96-well plates using the ABI Prism 7000 sequence detection system (Applied Biosystems), by applying the following temperature profile: 50° C. for 2 minutes, 95° C. for 10 minutes and 45 cycles at 95° C. for 15 seconds and 60° C. for 1 minute. […] A set of primers and probe for β-actin was used in separate wells as an internal control of the samples for the purposes of normalization. Once the reaction had taken place, the fluorescence data were analysed using the ABI Prism 7000 SDS software, by calculating the threshold cycle (Ct) for each sample and subsequently performing a relative quantification via the ΔΔCt method.

[2] = system: p40 expression by LPS-stimulated MonoMac6 cells; experiment: Analysis of the gene expression of p40 in a human monocyte line (real-time RT-PCR); format: cell-based; details: 1 h pre-incubation, LPS 100 ng/ml 4 h, read-out: % inhibition of p40 expression (mRNA); for inhibition at 300 µM: MONO-MAC-6, compound 300 μM (maximum soluble concentration)
Protocol: (§2) The capacity of the compounds to inhibit the expression of p40 by lipopolysaccharide (LPS)-stimulated MonoMac6 cells was evaluated. The cells were placed in 96-well plates at a concentration of 50 000 cells/well. The compounds were tested at the maximum soluble concentration given in Table 4 (in the range 30-300 μM) and incubated for 1 hour. The cells were then stimulated with LPS (100 ng/ml) for 4 hours.
as §1

[3] = system: MCP-1 expression by LPS-stimulated MonoMac6 cells; experiment: Analysis of the gene expression of MCP-1 in a human monocyte line (real-time RT-PCR); format: cell-based; details: 1 h pre-incubation, LPS 100 ng/ml 4 h
Protocol: as §2, with “of MCP-1” for “of p40”, “Table 1” for “Table 4”
The total RNA was extracted from the cell pellet using the RNeasy mini kit (Qiagen), reverse-transcribed with the TaqMan Reverse transcription reagents synthesis kit (Applied Biosystems) and the cDNA obtained was used for the real-time PCR reaction. The amplification was obtained in 96-well plates using the ABI Prism 7000 sequence detection system (Applied Biosystems), by applying the following temperature profile: 50° C. for 2 minutes, 95° C. for 10 minutes and 45 cycles at 95° C. for 15 seconds and 60° C. for 1 minute. For the amplification, a set of primers and probe specific for human MCP-1 was used (Applied Biosystems, RefSeq NM_002982.3). A set of primers and probe for β-actin was used in separate wells as an internal control of the samples for the purposes of normalization. Once the reaction had taken place, the fluorescence data were analysed using the ABI Prism 7000 SDS software, by calculating the threshold cycle (Ct) for each sample and subsequently performing a relative quantification via the ΔΔCt method.

[4] = system: MCP-1 protein production by LPS-stimulated MonoMac6 cells; experiment: Measurement of the production of MCP-1 in a human monocyte line (ELISA); format: cell-based; details: 1 h pre-incubation, LPS 100 ng/ml 20 h, MonoMac6 supernatant; for inhibition at 300 µM: MONO-MAC-6, compound 300 μM (maximum soluble concentration); for inhibition at 150 µM: MONO-MAC-6, compound 150 μM (maximum soluble concentration); for inhibition at 30 µM: MONO-MAC-6, compound 30 μM (maximum soluble concentration)
Protocol: as §2, with “of the protein MCP-1” for “of p40”, “Table 2” for “Table 4”, “for 20” for “for 4”
The amount of MCP-1 produced was measured in the supernatants, suitably diluted with buffer, by means of an immunoenzymatic test (ELISA) using a commercial kit (ELISA MCP-1/JE, R&D Systems).

[5] = compound 300 μM (maximum soluble concentration)
[6] = compound 150 μM (maximum soluble concentration)
[7] = MONO-MAC-6, compound 30 μM (maximum soluble concentration)

- melting point: 169 to 171 °C
SMILES: COc1ccc(Cn2nc(COC(C)(C)C(=O)O)c3ccccc32)cc1 [Compound 1, 2-{[1-(4-methoxybenzyl)-1H-indazol-3-yl]methoxy}-2-methylpropanoic acid]
- inhibition at 300 µM [1]: 97%
- inhibition at 300 µM [2]: 50%
- % inhibition of MCP-1 expression (mRNA) [3, 5]: 57%
- inhibition at 300 µM [4]: 80%

- melting point: 128 to 130 °C
SMILES: COc1ccc2c(c1)c(COC(C)(C)C(=O)O)nn2Cc1ccccc1 [Compound 2, 2-[(1-benzyl-5-methoxy-1H-indazol-3-yl)methoxy]-2-methylpropanoic acid]
- inhibition at 300 µM [4]: 66%

SMILES: CC(C)(OCc1nn(C(=O)c2ccccc2)c2ccccc12)C(=O)O [Compound 3, 2-[(1-benzoyl-1H-indazol-3-yl)methoxy]-2-methylpropanoic acid]
- inhibition at 300 µM [1]: 99%
- inhibition at 300 µM [2]: 64%
- % inhibition of MCP-1 expression (mRNA) [3, 5]: 65%
- inhibition at 300 µM [4]: 83%

SMILES: CC(C)(OCc1nn(Cc2ccc(Cl)cc2)c2ccccc12)C(=O)O [Compound 4, 2-{[1-(4-chlorobenzyl)-1H-indazol-3-yl]methoxy}-2-methylpropanoic acid]
- inhibition at 150 µM [1]: 87%
- inhibition at 150 µM ([2]; MONO-MAC-6, compound 150 μM (maximum soluble concentration)): 48%
- % inhibition of MCP-1 expression (mRNA) [3, 6]: 26%
- inhibition at 150 µM [4]: 54%

- melting point: 145 to 147 °C
SMILES: CC(C)(OCc1nn(Cc2ccccc2)c2ccc(Cl)cc12)C(=O)O [Compound 5, 2-[(1-benzyl-5-chloro-1H-indazol-3-yl)methoxy]-2-methylpropanoic acid]
- inhibition at 150 µM [4]: 82%

SMILES: CC(C)(OCc1nn(Cc2ccccc2)c2ccc([N+](=O)[O-])cc12)C(=O)O [Compound 6, 2-[(1-benzyl-5-nitro-1H-indazol-3-yl)methoxy]-2-methylpropanoic acid]
- inhibition at 150 µM [1]: 98%
- % inhibition of MCP-1 expression (mRNA) [3, 6]: 95%
- inhibition at 150 µM [4]: 100%

SMILES: CC(C)(OCc1nn(Cc2ccc(Cl)c(Cl)c2)c2ccccc12)C(=O)O [Compound 7, 2-{[1-(3,4-dichlorobenzyl)-1H-indazol-3-yl]methoxy}-2-methylpropanoic acid]
- inhibition at 30 µM [1, 7]: 85%
- inhibition at 30 µM [2, 7]: 47%
- inhibition at 30 µM [4]: 29%

SMILES: CC(C)(OCc1nn(C2CCCc3ccccc32)c2ccccc12)C(=O)O (centres unmarked) [Compound 8, 2-methyl-2-{[1-(1,2,3,4-tetrahydronaphth-1-yl)-1H-indazol-3-yl]methoxy}-propanoic acid]
- inhibition at 150 µM [4]: 77%

SMILES: O=C(O)COCc1nn(Cc2ccc(F)cc2)c2ccccc12 [Compound 17, {[1-(4-fluorobenzyl)-1H-indazol-3-yl]methoxy}acetic acid]
- inhibition at 300 µM [1]: 90%
- inhibition at 300 µM [2]: 61%
- % inhibition of MCP-1 expression (mRNA) [3, 5]: 26%
- inhibition at 300 µM [4]: 39%

SMILES: O=C(O)COCc1nn(Cc2ccc(Cl)cc2Cl)c2ccccc12 [Compound 18, {[1-(2,4-dichlorobenzyl)-1H-indazol-3-yl]methoxy}acetic acid]
- inhibition at 30 µM [4]: 35%

SMILES: O=C(O)COCCOCc1nn(Cc2ccccc2)c2ccccc12 [Compound 19, {2-[(1-benzyl-1H-indazol-3-yl)methoxy]ethoxy}acetic acid]
- inhibition at 300 µM [4]: 63%

- melting point: 94 to 95 °C
SMILES: CC(C)(OCCOCc1nn(Cc2ccccc2)c2ccccc12)C(=O)O [Compound 20, 2-{2-[(1-benzyl-1H-indazol-3-yl)methoxy]ethoxy}-2-methylpropanoic acid]
- inhibition at 300 µM [1]: 89%
- inhibition at 300 µM [2]: 58%
- % inhibition of MCP-1 expression (mRNA) [3, 5]: 29%
- inhibition at 300 µM [4]: 73%

SMILES: CC(C)(OCCCOCc1nn(Cc2ccccc2)c2ccccc12)C(=O)O [Compound 21, 2-{3-[(1-benzyl-1H-indazol-3-yl)methoxy]propoxy}-2-methylpropanoic acid]
- inhibition at 300 µM [1]: 97%
- inhibition at 300 µM [2]: 50%
- % inhibition of MCP-1 expression (mRNA) [3, 5]: 61%
- inhibition at 300 µM [4]: 88%

SMILES: Cc1ccc(Cn2nc(COC(C)(C)C(=O)O)c3ccccc32)cc1 [Compound 22, 2-{[1-(4-methylbenzyl)-1H-indazol-3-yl]methoxy}-2-methylpropanoic acid]
- inhibition at 150 µM [4]: 37%

- melting point: 168 to 170 °C
SMILES: CC(C)(OCc1nn(Cc2ccccc2)c2ccc(Br)cc12)C(=O)O [Compound 23, 2-[(1-benzyl-5-bromo-1H-indazol-3-yl)methoxy]-2-methylpropanoic acid]
